# Data published in PubChem BioAssay AID720570 (Broad Institute, 2013).
# The source made the active and inactive calls.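 Rule for the calls: active = cell-killing curve crosses a set limit at a concentration no more than twice the top valid dose; inconclusive = flat curve with a 30 to 70% loss, or a poor fit; inactive = signal rising instead of falling, and the rest.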
# System: TC71 Ewing sarcoma viability, CellTiter-Glo ATP, 72 h
# Test: cytotoxicity in EWS/Fli1-dependent TC71 cells – cell-based, luminescence, cherry-picked samples, retest, confirmation (AID 720570)
row,Structure (SMILES),AC35
1,C[C@@H]1O[C@@H](O[C@@H]2C=C3CC[C@@H]4C(CC[C@]5(C)[C@@H](c6ccc(=O)oc6)CC[C@]45O)[C@@]3(C)CC2)[C@H](O)[C@H](O)[C@H]1O (stereo not given in full),0.0374 µM
2,O=C(C[C@H]1C[C@H]2c3cc(NS(=O)(=O)c4ccc(F)cc4)ccc3O[C@H]2[C@H](CO)O1)NCc1ccc(Oc2ccccc2)cc1,10.8 µM
3,O=c1ccc2[n+]([O-])c3ccc(O)cc3oc-2c1,9.82 µM
4,O=C(NC1CCCC1)N1CCCCN2[C@@H](CO)[C@@H](c3ccc(/C=C/c4ccccc4)cc3)[C@@H]2C1,13.6 µM
5,COc1ccc([Si](C)(C)[C@H]2[C@H](CCO)O[C@@]3(C(=O)N(c4ccccc4)c4ccccc43)[C@@H]2C)cc1,12.8 µM
6,C[C@@H]1CN([C@@H](C)CO)C(=O)c2cc(NC(=O)c3ccccc3)ccc2O[C@@H](C)CCCCO[C@H]1CN(C)C(=O)Nc1cccc2ccccc12,0.679 µM
7,COc1ccc(/C=C(/C(=O)c2cccs2)N2C=CC=CC2=C(C#N)C#N)cc1,24.6 µM
8,COC(=O)C1=C(C)N(Cc2cccc(C(F)(F)F)c2)C(=NCc2ccc(OC)cc2)NC1c1cccc(F)c1 (stereo not given),10.9 µM
9,Cc1ccc(S(=O)(=O)N(C)C[C@@H]2Oc3ccc(NC(=O)CCCCCC(=O)Nc4ccccc4N)cc3CC(=O)N([C@@H](C)CO)C[C@@H]2C)cc1,> 21 µM (inactive)
10,BrC(=C\c1ccccc1)/C=N/n1cnnc1,14.5 µM
11,CCOC(=O)[C@]12Cc3ccc(C)cc3[C@H]1N(C1CCCCC1)C(=O)c1ccccc12,12.1 µM
12,O=C(O)c1ccc(N/N=C/c2c(F)cccc2Cl)cc1,3.26 µM
13,CC(=O)Oc1ccc(-c2ccc(C(=O)Nc3cccc(S(=O)(=O)N4CCOCC4)c3)cc2)cc1,3.71 µM
14,Cc1ccc(S(=O)(=O)Nc2ccc3c(c2)C(=O)N([C@@H](C)CO)C[C@@H](C)[C@H](CN(C)Cc2ccc(C(F)(F)F)cc2)OCCCC[C@H](C)O3)cc1,11.7 µM
15,CC1(C)N=C(N)N=C(N)N1c1ccc(OCCCOc2ccccc2)c(Cl)c1,4.91 µM
16,COc1ccc(OC)c(-c2nnc3n2N=C(c2ccc(OC)c(OC4CCOC4)c2)CS3)c1 (stereo not given),3.98 µM
17,c1ccc(Nc2nnc(-c3ccc4c(c3)OCO4)o2)cc1,12 µM
18,C[C@H]1CN([C@@H](C)CO)C(=O)Cc2cc(NC(=O)CCC(F)(F)F)ccc2O[C@H]1CN(C)Cc1ccc(C(=O)Nc2ccccc2N)cc1,9.19 µM
19,C[C@@H]1CN([C@@H](C)CO)C(=O)c2cccc(NS(=O)(=O)c3ccccc3)c2O[C@@H]1CN(C)Cc1ccc(C(=O)Nc2ccccc2N)cc1,11.9 µM
20,CCCCCCCCCCCCCCCCn1cc[n+](C)c1,10.2 µM
21,COc1ccccc1NC(=O)N1[C@@H]2CNC[C@H]1[C@@H]2c1ccc(-c2ccc(C#N)cc2)cc1,> 23.5 µM (inactive)
22,Cc1cc(-c2nc3cc(F)ccc3s2)ccc1N,14.2 µM

row,Structure (SMILES),AC35
1,O=c1c(Cl)cc(Cl)nn1-c1ccccc1,13 µM
2,C[C@@H]1O[C@@H](O[C@H]2C[C@@H](O)[C@]3(CO)[C@@H]4C(CC[C@]3(O)C2)[C@@]2(O)CC[C@H](C3COC(=O)C3)[C@@]2(C)C[C@H]4O)[C@H](O)[C@H](O)[C@H]1O (stereo not given in full),6.91 µM
3,Nc1ccn([C@@H]2O[C@H](CO)[C@@H](O)C2O)c(=O)n1 (stereo not given in full),1.22 µM
4,C[C@@H]1CN([C@@H](C)CO)C(=O)c2cccc(NS(=O)(=O)c3ccc(F)cc3)c2O[C@@H]1CN(C)Cc1ccc(C(=O)Nc2ccccc2N)cc1,8.22 µM
5,N#CC1=C(N)Oc2cc(N)ccc2C1c1cccc(Br)c1 (stereo not given),0.845 µM
6,COc1cc2c(cc1NC(=O)CN(C)Cc1ccc(OC)c(OC)c1)oc1ccccc12,14.5 µM
7,CC(C)N1C/C(=C/c2ccsc2)C(=O)/C(=C/c2ccsc2)C1,14 µM
8,Cc1noc(C)c1C(=O)Nc1sccc1C(N)=O,13.6 µM
9,C[C@H]1CN([C@@H](C)CO)S(=O)(=O)c2ccc(C#CC(C)(C)O)cc2O[C@@H]1CN(C)Cc1ccc(-c2ccccc2)cc1,0.414 µM
10,COc1ccccc1NC(=O)N1CCCCN2[C@H](CO)[C@H](c3ccc(-c4cccc(C)c4)cc3)[C@H]2C1,10.9 µM
11,Cc1nc(N)nc(N)c1/C=C/C(C)(C)c1ccc(Cl)cc1,< 0.011 µM
12,CN(C[C@H]1N[C@@H](CO)[C@@H]1c1ccc(C2=CCCC2)cc1)C(=O)c1ccc(F)cc1,3.92 µM
13,CC(C)=CCC/C(C)=C/CN1C(=O)N(c2ccc(F)cc2)[C@H]2C[C@@H](c3ccccc3)[C@@H](C)[C@@H](C(=O)N3CCOCC3)C[C@H]21,4.4 µM
14,Nc1ccc(Cn2ccc3c4c(N)nc(N)nc4ccc32)cc1,0.0342 µM
15,CCc1ccc(S(=O)(=O)c2ccc(-n3nc(C)cc3N)cc2)cc1,19.4 µM
16,CC[C@@H]1C[C@H]2CC[C@H](O2)[C@H](C)C(=O)O[C@@H](C)C[C@@H]2CC[C@@H](O2)[C@@H](C)C(=O)O[C@H](C)C[C@H]2CC[C@H](O2)[C@H](C)C(=O)O[C@@H](C)C[C@@H]2CC[C@@H](O2)[C@@H](C)C(=O)O1,0.0639 µM
17,COc1ccc(C2c3cc4c(cc3OC(NNC(N)=O)C2C)OCO4)cc1 (stereo not given),12 µM
18,COc1ccc(/C=C/C(=O)c2ccc(C(=O)/C=C/c3ccc(OC)c(OC)c3)cc2)cc1OC,20.4 µM
19,CC1OC(OC2CC(O)C3(CO)C4C(O)CC5(C)C(C6=CC(=O)OC6)CCC5(O)C4CCC3(O)C2)C(O)C(O)C1O (stereo not given),0.173 µM
20,O=C1c2ccccc2C(=O)N1CCCCNc1ccccc1,5.25 µM
21,CC1(C)N=C(N)N=C(N)N1c1ccc(CCCCc2ccccc2)cc1,1.39 µM
22,COc1cc(-c2noc(C)c2C#Cc2nccn2C)cc(OC)c1OC,13.1 µM

row,Structure (SMILES),AC35
1,COc1ccc(C(=O)NCCNc2nc3cc(C)cc(C)c3cc2C#N)c(OC)c1,15.9 µM
2,CN(C)CC1CCC/C(=C\c2ccc(OC(=O)c3ccc(Cl)cc3)cc2)C1=O (stereo not given),3.4 µM
3,COc1ccc(NC(=O)N2CCCCN3[C@H](CO)[C@H](c4ccc(C#CCC(C)C)cc4)[C@H]3C2)cc1,12.2 µM
4,O=C(NCc1ccc(F)cc1)N1[C@H]2CC[C@@H]1C=C(c1ccc(F)cc1OCc1ccccc1)C2,13.9 µM
5,COC1C(O)C(C)OC(OC2CCC3(C)C(CCC4C3C(O)CC3(C)C(C5=CC(=O)OC5)CCC43O)C2)C1O (stereo not given),0.699 µM
6,O=C1NC(=O)N(c2ccccc2)C(=O)/C1=C\C=C\c1ccccc1,12.6 µM
7,O=c1[nH]c(=O)n([C@H]2C[C@H](O)[C@@H](CO)O2)cc1C(F)(F)F,2.91 µM
8,C[C@@H]1CN([C@H](C)CO)C(=O)c2cc(NC(=O)CCCCCC(=O)Nc3ccccc3N)ccc2O[C@@H]1CN(C)Cc1ccc(Cl)c(Cl)c1,12.8 µM
9,COc1ccc(S(=O)(=O)Nc2ccc3c(c2)C(=O)N([C@H](C)CO)C[C@@H](C)[C@@H](CN(C)Cc2ccc(C(=O)Nc4ccccc4N)cc2)O3)cc1,18.5 µM
10,Cc1[nH][nH]c(=O)c1C(c1c(C)[nH][nH]c1=O)c1cn(Cc2ccc(Cl)c(Cl)c2)c2ccccc12,11.3 µM
11,COc1cccc(O)c1CN1CCC(C(=O)Nc2ccc(-c3cccc(C)c3)cc2)CC1,20.7 µM
12,C[C@H]1CN([C@@H](C)CO)C(=O)Cc2cc(NC(=O)CCCCCC(=O)Nc3ccccc3N)ccc2O[C@H]1CN(C)Cc1ccc(Cl)c(Cl)c1,14.1 µM
13,COc1ccc(OC)c(Cc2cnc3nc(N)nc(N)c3c2C)c1,0.0778 µM
14,COc1cccc(OC)c1C(=O)Nc1cc(C)nn1-c1nc2ccccc2[nH]1,18.2 µM
15,Cc1cccc(NC(=O)CN2CCN(C(=O)CNC(=O)c3ccc(-c4ccccc4)cc3)CC2)c1C,8.9 µM
16,C[C@H]1CN([C@@H](C)CO)S(=O)(=O)c2ccc(C#Cc3ccncc3)cc2O[C@@H]1CN(C)C(=O)Nc1ccc2c(c1)OCO2,4.14 µM
17,O=C(CCc1ccccc1)NC(c1cccs1)c1cc(Cl)c2cccnc2c1O (stereo not given),2.81 µM
18,CCOc1ccc(OCc2ccc(C(=O)NN=Cc3ccc[nH]3)cc2)cc1,0.504 µM
19,C[C@@H]1CCCCO[C@H](CN(C)Cc2ccc(C(=O)Nc3ccccc3N)cc2)[C@@H](C)CN([C@H](C)CO)C(=O)c2cc(NS(=O)(=O)c3ccc(Cl)cc3)ccc2O1,16.2 µM
20,C[C@@H]1CN([C@@H](C)CO)C(=O)c2cc(NC(=O)Nc3ccccc3)ccc2O[C@@H]1CN(C)Cc1ccc(C(=O)Nc2ccccc2N)cc1,6.58 µM
21,Oc1cccc(-c2nnc(-c3cccc(O)c3)nn2)c1,21.3 µM
22,CC1(C(=O)NCc2ccco2)Cc2c(-c3cccc(C(N)=O)c3)ccnc2O1 (stereo not given),7.99 µM

row,Structure (SMILES),AC35
1,COc1ccccc1-c1ccc(OCCCN2CCC(C(O)(c3ccccc3)c3ccccc3)CC2)cc1,13.7 µM
2,C[C@]12CC[C@H](O)C[C@H]1CC[C@@H]1[C@@H]2CC[C@]2(C)[C@@H](C3=CC(=O)OC3)CC[C@]12O,2.11 µM
3,Cc1ccc(C)c(S(=O)(=O)N2CCN(c3ncnc4sccc34)CC2)c1,6.72 µM
4,C[C@@H]1CCCCO[C@H](CN(C)Cc2ccc(C(=O)Nc3ccccc3N)cc2)[C@@H](C)CN([C@@H](C)CO)C(=O)c2cc(NS(=O)(=O)c3ccc(Cl)cc3)ccc2O1,13.6 µM
5,O=C(N/N=C/c1cccs1)c1n[nH]c2c1CCCC2,17.2 µM
6,C/C(=C\c1ccccc1)C(=O)N1CCC=CC1=O,13.7 µM
7,CC1(C)Oc2cc3oc(-c4cc(O)cc(O)c4)cc3cc2CC1O (stereo not given),12.5 µM
8,C[C@@H]1CN([C@@H](C)CO)C(=O)c2cc(NS(=O)(=O)c3ccccc3)ccc2O[C@@H]1CN(C)Cc1ccc(C(=O)Nc2ccccc2N)cc1,10.2 µM
9,CC(=O)N1CCCC(c2cc(C(=O)Nc3ccccc3)no2)C1 (stereo not given),12.7 µM
10,C[C@H](CO)N1C[C@H](C)[C@H](CN(C)Cc2ccc(C(=O)Nc3ccccc3N)cc2)Oc2ccc(N(C)C)cc2C1=O,11.9 µM
11,C(=Cc1c[nH]c2ccccc12)c1ccc2ccccc2n1,3.86 µM
12,COc1cc(C(=O)N2CCC(N3CCN(C)CC3)CC2)ccc1Nc1ncc2c(n1)N(C)c1ccccc1C(=O)N2C,11.4 µM
13,C[C@H]1CN([C@@H](C)CO)C(=O)c2cc(N(C)C)ccc2O[C@@H]1CN(C)Cc1ccc(C(=O)Nc2ccccc2N)cc1,17.7 µM
14,COc1ccc(NC(=O)N2CCCCN3[C@@H](CO)[C@H](c4ccc(C5=CCCCC5)cc4)[C@@H]3C2)cc1,23.3 µM
15,Cc1cccc(N2CCN(C3C(=O)Nc4ccccc4-n4nnnc43)CC2)c1C (stereo not given),13.9 µM
16,C[C@@H]1O[C@@H](O[C@@H]2C=C3CCC4C(CC[C@]5(C)[C@@H](c6ccc(=O)oc6)CC[C@]45O)[C@@]3(C)CC2)[C@H](O)[C@H](O)[C@H]1O (stereo not given in full),0.0271 µM
17,N#C[C@@H]1[C@H](c2ccc(C#Cc3ccc(F)cc3)cc2)[C@@H](CO)N1C(=O)Nc1ccc(F)cc1,10.9 µM
18,O=C1c2ccccc2C(=O)c2cc(N3CCCCC3)ccc21,23.3 µM
19,C=C1C(=O)OC2C1CCC(C)C1C=CC(=O)C12C (stereo not given),13.8 µM
